From US11098041B2 (Merck Patent GmbH, priority 2014, dated 2021)

Experiments:
[1] = biological target: full-length human BTK (Homo sapiens (Human), UniProt Q06187); experiment: Assay A: microfluidic off-chip mobility shift assay against BTK enzyme; format: biochemical
Description: Assay A: Microfluidic Off-Chip Mobility Shift Assay Protocol for Potency Assessment Against BTK Enzyme
The protocol below describes microfluidic, off-chip mobility shift kinase assay to measure inherent potency of compounds against BTK enzyme.
5 uL of enzyme buffer and 7.5 uL of ATP/kinKDR peptide substrate mix were added to Matrix (#115304) 384-well, sterile, polypropylene plates (Thermo Fisher Scientific, Hudson, N.H.) with 125 nL of serially diluted compounds prepared in 100% DMSO, and incubated for 90 min. at 27° C. Following the incubation period, reactions were stopped by adding 60 uL stop buffer consisting of 100 mM HEPES, pH 7.5, 0.015% Brij-35 (30%), 0.277% Coating Reagent #3 (Caliper Life Sciences, Mountain View, Calif.), 5% DMSO. Stopped reactions were monitored at −2 PSI, −3000 V/−700 V in a LabChip 3000 plate reader from Caliper Life Sciences, a PerkinElmer Company (Hopkinton, Mass.), and the activity was measured by off-chip mobility shift assay measuring the charge/mass difference between substrate and product resulting from peptide phosphorilation. IC50 and efficacy were determined by plotting log [Inhibitor] vs. % Activity in GeneData Screener (Basel. Switzerland).

[2] = biological target: BTK C481S (His-TEV-hsBTK(328-659)(C481S)) (Homo sapiens (Human), UniProt Q06187, C481S); experiment: Assay B: microfluidic off-chip mobility shift assay against BTK C481S enzyme; format: biochemical; details: BTK C481S mutant
Description: The mechanics of the assay platform are described by the vendor (PerkinElmer, Hopkinton, Mass.) on their website at the following URL: http://caliperls.com.
5 uL of enzyme buffer and 7.5 uL of ATP/KinKDR peptide substrate mix were added to Matrix (#4315) 384-well, sterile, flat-bottom polypropylene plates (Thermo Fisher Scientific, Hudson, N.H.) with 125 nL of serially diluted compounds prepared in 100% DMSO, and incubated for 90 min. at 25° C. Following the incubation period, reactions were terminated by adding 65 uL quench buffer consisting of 100 mM HEPES, pH 7.5, 0.015% Brij-35 (30%), 0.277% Coating Reagent #3 (PerkinElmer, Mountain View, Calif.), 5% DMSO. Terminated reactions were monitored at −2 PSI, −3000 V/−700 Volts in a LabChip 3000 plate reader from Caliper Life Sciences, a PerkinElmer Company (Hopkinton, Mass.), and the activity was quantified by laser-induced fluorescence measuring the charge/mass difference between substrate and product resulting from peptide phosphorylation. IC50 and efficacy were determined by plotting log [Inhibitor] vs. % Activity in GeneData Screener (Basel, Switzerland).

Chain of full-length human BTK (Q06187 whole entry): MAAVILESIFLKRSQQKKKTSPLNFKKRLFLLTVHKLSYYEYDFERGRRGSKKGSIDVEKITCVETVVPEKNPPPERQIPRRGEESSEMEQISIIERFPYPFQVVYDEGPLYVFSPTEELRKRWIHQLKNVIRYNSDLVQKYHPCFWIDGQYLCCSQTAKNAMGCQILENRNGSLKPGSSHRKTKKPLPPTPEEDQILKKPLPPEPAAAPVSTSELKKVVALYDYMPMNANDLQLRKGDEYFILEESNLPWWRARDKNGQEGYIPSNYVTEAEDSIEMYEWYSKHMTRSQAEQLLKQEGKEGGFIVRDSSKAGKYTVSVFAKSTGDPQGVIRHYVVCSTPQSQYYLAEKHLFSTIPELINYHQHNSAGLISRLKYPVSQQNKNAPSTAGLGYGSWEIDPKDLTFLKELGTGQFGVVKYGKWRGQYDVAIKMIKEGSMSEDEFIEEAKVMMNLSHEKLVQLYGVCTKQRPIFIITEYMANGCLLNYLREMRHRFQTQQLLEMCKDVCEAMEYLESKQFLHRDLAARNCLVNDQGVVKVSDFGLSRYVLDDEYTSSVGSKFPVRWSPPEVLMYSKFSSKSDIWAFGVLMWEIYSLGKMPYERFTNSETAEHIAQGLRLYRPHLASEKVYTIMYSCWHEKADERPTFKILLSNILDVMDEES
Chain of BTK C481S (His-TEV-hsBTK(328-659)(C481S)) (Q06187 328-659 C481S): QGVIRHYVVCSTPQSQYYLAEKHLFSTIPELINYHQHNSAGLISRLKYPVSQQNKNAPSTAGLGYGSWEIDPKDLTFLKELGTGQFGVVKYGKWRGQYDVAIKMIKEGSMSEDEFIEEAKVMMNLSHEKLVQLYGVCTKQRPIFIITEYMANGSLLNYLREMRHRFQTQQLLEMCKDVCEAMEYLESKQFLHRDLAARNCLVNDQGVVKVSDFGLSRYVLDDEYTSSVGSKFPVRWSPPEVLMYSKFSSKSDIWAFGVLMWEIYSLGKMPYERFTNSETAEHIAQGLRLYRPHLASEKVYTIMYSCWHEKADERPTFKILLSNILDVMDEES

| IC50 [1] | IC50 [2] | SMILES |
| --- | --- | --- |
| < 100 nM | < 100 nM | Cn1cc(-c2nc3c(-c4ccc(C5CCCN5C(=O)c5ccc(C(C)(C)C)cc5)cc4)ccnc3[nH]2)cn1 (centres unmarked) [Example 121, (4-tert-Butyl-phenyl)-(2-{4-[2-(1-methyl-1H-pyrazol-4-yl)-3H-imidazo[4,5-b]pyridin-7-yl]-phenyl}-pyrrolidin-1-yl)-methanone] |
| < 100 nM | – | Cn1cc(-c2nc3c(-c4ccc(C5(NC(=O)c6nnc(C(C)(C)C)o6)CC5)cc4)ccnc3[nH]2)cn1 [Example 97, 5-tert-Butyl-[1,3,4]oxadiazole-2-carboxylic acid (1-{4-[2-(1-methyl-1H-pyrazol-4-yl)-3H-imidazo[4,5-b]pyridin-7-yl]-phenyl}-cyclopropyl)-amide] |
| > 5000 nM | – | Cn1cc(-c2nc3c(-c4ccc(CNCc5cccnc5)c(F)c4)ccnc3[nH]2)cn1 [Example 173, N-(2-fluoro-4-(2-(1-methyl-1H-pyrazol-4-yl)-3H-imidazo[4,5-b]pyridin-7-yl)benzyl)-1-(pyridin-3-yl)methanamine] |
| > 5000 nM | – | Cn1cc(-c2nc3c(-c4ccc(CNCc5ccc(F)c(F)c5)c(F)c4)ccnc3[nH]2)cn1 [Example 174, N-(3,4-difluorobenzyl)-1-(2-fluoro-4-(2-(1-methyl-1H-pyrazol-4-yl)-3H-imidazo[4,5-b]pyridin-7-yl)phenyl)methanamine] |
| > 5000 nM | – | Cc1ccc(S(=O)(=O)NCc2ccc(-c3ccnc4[nH]c(-c5cnn(C)c5)nc34)cc2F)cc1 [Example 175, N-(2-fluoro-4-(2-(1-methyl-1H-pyrazol-4-yl)-3H-imidazo[4,5-b]pyridin-7-yl)benzyl)-4-methylbenzenesulfonamide] |
| < 100 nM | – | CC(C)(C)c1noc(C(=O)NCc2ccc(-c3ccnc4[nH]c(-c5ccc(N6CCCCC6)cn5)nc34)cc2F)n1 [Example 157, 3-tert-Butyl-N-[(2-fluoro-4-[2-[5-(piperidin-1-yl)pyridin-2-yl]-3H-imidazo[4,5-b]pyridin-7-yl]phenyl)methyl]-1,2,4-oxadiazole-5-carboxamide] |
| < 100 nM | – | COc1ccc(-c2nc3c(-c4ccc(CNC(=O)c5nnc(C(C)(C)C)o5)c(F)c4)ccnc3[nH]2)nc1 [Example 158, 5-tert-butyl-N-([2-fluoro-4-[2-(5-methoxypyridin-2-yl)-3H-imidazo[4,5-b]pyridin-7-yl]phenyl]methyl)-1,3,4-oxadiazole-2-carboxamide] |
| > 5000 nM | – | Cn1cc(-c2nc3c(-c4ccc(CNCc5cccc(C(C)(C)C)c5)c(F)c4)ccnc3[nH]2)cn1 [Example 180, N-(3-(tert-butyl)benzyl)-1-(2-fluoro-4-(2-(1-methyl-1H-pyrazol-4-yl)-3H-imidazo[4,5-b]pyridin-7-yl)phenyl)methanamine] |

Further lines, the compound ahead of its results:

| SMILES | IC50 [1] | IC50 [2] |
| --- | --- | --- |
| CC(C)(C)OC(=O)N1CC=C(c2nc3c(-c4ccc(CNC(=O)c5noc(C(C)(C)C)n5)c(F)c4)ccnc3[nH]2)CC1 [Example 137, tert-butyl 4-(7-(4-((5-(tert-butyl)-1,2,4-oxadiazole-3-carboxamido)methyl)-3-fluorophenyl)-3H-imidazo[4,5-b]pyridin-2-yl)-5,6-dihydropyridine-1(2H)-carboxylate] | < 100 nM | – |
| CC(C)(C)c1nnc(C(=O)NCc2ccc(-c3ccnc4[nH]c(-c5cnn(C6CCOCC6)c5)nc34)cc2F)o1 [Example 126, 5-tert-Butyl-[1,3,4]oxadiazole-2-carboxylic acid 2-fluoro-4-{2-[1-(tetrahydro-pyran-4-yl)-1H-pyrazol-4-yl]-3H-imidazo[4,5-b]pyridin-7-yl}-benzylamide] | < 100 nM | < 100 nM |
| Cn1cc(-c2nc3c(-c4ccc(CNS(=O)(=O)CC5(CC#N)CC5)c(F)c4)ccnc3[nH]2)cn1 [Example 177, 1-(1-(cyanomethyl)cyclopropyl)-N-(2-fluoro-4-(2-(1-methyl-1H-pyrazol-4-yl)-3H-imidazo[4,5-b]pyridin-7-yl)benzyl)methanesulfonamide] | 1000 to 5000 nM | – |
| CC(C)(C)c1nc(C(=O)NCc2ccc(-c3ccnc4[nH]c(-c5ccc(N6CCC(F)CC6)cn5)nc34)cc2F)no1 [Example 167, 5-tert-butyl-N-[(2-fluoro-4-[2-[5-(4-fluoropiperidin-1-yl)pyridin-2-yl]-3H-imidazo[4,5-b]pyridin-7-yl]phenyl)methyl]-1,2,4-oxadiazole-3-carboxamide] | < 100 nM | – |
| Cn1cc(-c2nc3c(-c4ccc5c(c4)CCN(C(=O)c4nc(C(C)(C)C)no4)C5)ccnc3[nH]2)cn1 [Example 154, (3-tert-Butyl-[1,2,4]oxadiazol-5-yl)-{6-[2-(1-methyl-1H-pyrazol-4-yl)-3H-imidazo[4,5-b]pyridin-7-yl]-3,4-dihydro-1H-isoquinolin-2-yl}-methanone] | > 5000 nM | – |
| NCc1ccc(-c2ccnc3[nH]c(-c4cnn(C5CCC5)c4)nc23)cc1F [Example 188, 4-[2-(1-Cyclobutyl-1H-pyrazol-4-yl)-3H-imidazo[4,5-b]pyridin-7-yl]-2-fluoro-benzylamine] | 1000 to 5000 nM | – |
| Cc1ccc(-n2ccn(-c3cccc(-c4ccnc5[nH]c(-c6ccc(C(=O)N7CCOCC7)cc6)nc45)c3CO)c2=O)cc1 [Example 96, 1-[2-(Hydroxymethyl)-3-(2-[4-[(morpholin-4-yl)carbonyl]phenyl]-3H-imidazo[4,5-b]pyridin-7-yl)phenyl]-3-(4-methylphenyl)-2,3-dihydro-1H-imidazol-2-one] | 100 to 1000 nM | – |
| Cn1cc(-c2nc3c(-c4ccc(CNS(=O)(=O)CCC5CCC5)c(F)c4)ccnc3[nH]2)cn1 [Example 178, 2-cyclobutyl-N-(2-fluoro-4-(2-(1-methyl-1H-pyrazol-4-yl)-3H-imidazo[4,5-b]pyridin-7-yl)benzyl)ethanesulfonamide] | 1000 to 5000 nM | – |
| CN1CCC(c2ccc(-c3nc4c(-c5ccc(CNC(=O)c6noc(C(C)(C)C)n6)c(F)c5)ccnc4[nH]3)nc2)CC1 [Example 169, 5-tert-butyl-N-[(2-fluoro-4-[2-[5-(1-methylpiperidin-4-yl)pyridin-2-yl]-3H-imidazo[4,5-b]pyridin-7-yl]phenyl)methyl]-1,2,4-oxadiazole-3-carboxamide] | < 100 nM | – |
| Cn1cc(-c2nc3c(-c4ccc(CNCc5ccc(C(C)(C)C)cc5)c(F)c4)ccnc3[nH]2)cn1 [Example 181, N-(4-(tert-butyl)benzyl)-1-(2-fluoro-4-(2-(1-methyl-1H-pyrazol-4-yl)-3H-imidazo[4,5-b]pyridin-7-yl)phenyl)methanamine] | > 5000 nM | – |
| Cc1cc(-c2ccnc3[nH]c(-c4ccc(OCC(O)CO)cn4)nc23)ccc1CN1CCOc2cc(C3CC3)cc(F)c2C1=O (centres unmarked) [Example 170, 8-cyclopropyl-4-[(4-[2-[5-(2,3-dihydroxypropoxy)pyridin-2-yl]-3H-imidazo[4,5-b]pyridin-7-yl]-2-methylphenyl)methyl]-6-fluoro-2,3,4,5-tetrahydro-1,4-benzoxazepin-5-one] | < 100 nM | – |
| Cn1cc(-c2nc3c(-c4cccc(CNC(=O)c5noc(C(C)(C)C)n5)c4)ccnc3[nH]2)cn1 [Example 87, 5-tert-Butyl-N-([3-[2-(1-methyl-1H-pyrazol-4-yl)-3H-imidazo[4,5-b]pyridin-7-yl]phenyl]methyl)-1,2,4-oxadiazole-3-carboxamide] | 1000 to 5000 nM | – |
| Cn1cc(-c2nc3c(-c4ccc(CN5CCOc6cc(C7CC7)cc(F)c6C5=O)nc4)ccnc3[nH]2)cn1 [Example 171, 8-cyclopropyl-6-fluoro-4-([5-[2-(1-methyl-1H-pyrazol-4-yl)-3H-imidazo[4,5-b]pyridin-7-yl]pyridin-2-yl]methyl)-2,3,4,5-tetrahydro-1,4-benzoxazepin-5-one] | < 100 nM | – |
| CN(C)c1ccc(-c2nc3c(-c4ccc(CNC(=O)c5nnc(C(C)(C)C)o5)c(F)c4)ccnc3[nH]2)nc1 [Example 172, 5-tert-butyl-N-[(4-[2-[5-(dimethylamino)pyridin-2-yl]-3H-imidazo[4,5-b]pyridin-7-yl]-2-fluorophenyl)methyl]-1,3,4-oxadiazole-2-carboxamide] | < 100 nM | – |
| Cn1cc(-c2nc3c(-c4ccc(CNS(=O)(=O)CC5CCCS(=O)(=O)C5)c(F)c4)ccnc3[nH]2)cn1 (centres unmarked) [Example 179, 1-(1,1-dioxidotetrahydro-2H-thiopyran-3-yl)-N-(2-fluoro-4-(2-(1-methyl-1H-pyrazol-4-yl)-3H-imidazo[4,5-b]pyridin-7-yl)benzyl)methanesulfonamide] | > 5000 nM | – |
| Cn1cc(-c2nc3c(-c4ccc(CNS(C)(=O)=O)c(F)c4)ccnc3[nH]2)cn1 [Example 176, N-(2-fluoro-4-(2-(1-methyl-1H-pyrazol-4-yl)-3H-imidazo[4,5-b]pyridin-7-yl)benzyl)methanesulfonamide] | > 5000 nM | – |
